Measured values as given in a melting point compilation (Tetko et al.).

Compared with `O=C(O)c1cnc(-c2ccccc2F)s1`, `O=C(O)C1Cc2ccccc2S1` (stereo not drawn) is lower in melting point: 187 to 189 °C for the first, 107 to 109 °C for the second.

First: Cc1ccccc1C=NO
Second: CSC(=CC(=O)c1ccccc1)SC
The melting point of the first is lower: 38 to 40 °C for the first, 92 to 94 °C for the second.

Compared with `O=C(O)c1ccc2[nH]c(=O)[nH]c2c1`, `CN(C)c1ncnc2cc(C(=O)O)ccc12` is lower in melting point: 373 to 375 °C for the first, 323 to 325 °C for the second.

First: Nn1c(S)nnc1C1CCOCC1
Second: Sc1nnc(C2CC2)s1
The melting point of the first is higher: 177 to 179 °C for the first, 108 to 110 °C for the second.

First: Cc1cc(S(=O)(=O)Cl)c(C)cc1Br
Second: Cc1cc(Br)cc(C)c1NCc1ncc[nH]1
The melting point of the first is lower: 54 to 56 °C for the first, 142 to 144 °C for the second.

First: CCOC(=O)Cc1nnc(S)n1Cc1ccco1
Second: CCOC(=O)Cc1nc(-c2ccc(OC)c(OC)c2)no1
The melting point of the first is lower: < 17 °C for the first, 75 to 77 °C for the second.

First: O=C1NCCCC1Br (stereo not drawn)
Second: COc1ccc(C2CCCCC2=O)cc1F (stereo not drawn)
The melting point of the first is lower: 49 to 51 °C for the first, 78 to 80 °C for the second.

First: COC(=O)c1cc(N)cc(S(C)(=O)=O)c1
Second: COC(=O)c1ccc(Br)c(C)c1N
The melting point of the first is higher: 194 to 196 °C for the first, 79 to 81 °C for the second.

First: O=C(O)c1ccc(Oc2cccc(F)c2)cc1
Second: O=C(O)c1ccc(COc2ccc(Br)cc2)o1
The melting point of the first is lower: 146 to 148 °C for the first, 194 to 196 °C for the second.

Compared with `N#CCN1CCN(Cc2ccccc2)CC1`, `CN1C(=O)CCC(C(=O)O)C1c1ccccc1` (stereo not drawn) is higher in melting point: 49 to 51 °C for the first, 204 to 206 °C for the second.

First: CC(C)S(=O)(=O)Nc1ccc(C(=O)O)cc1
Second: CC(=O)CC(=O)Nc1ccc(C(C)C)cc1
The melting point of the first is higher: 179 to 181 °C for the first, 68 to 70 °C for the second.

Compared with `Nc1cc(-c2ccc(F)cc2F)no1`, `Cc1nc2c(F)cccc2c(Cl)c1C` is lower in melting point: 110 to 112 °C for the first, 95 to 97 °C for the second.

First: NC(=O)N1CCCC1
Second: O=C(CCn1ccnc1)NC1CCC(C(=O)O)CC1 (stereo not drawn)
The melting point of the first is lower: 222 to 224 °C for the first, 229 to 231 °C for the second.

First: CC(NC(=S)NN)C1CC1 (stereo not drawn)
Second: O=C(O)c1sc(C2CC2)nc1C(F)(F)F
The melting point of the first is lower: 68 to 70 °C for the first, 146 to 148 °C for the second.

First: O=C1CSCc2c(F)cccc21
Second: O=C1CC(=Cc2ccc(F)cc2)C(=O)N1
The melting point of the first is lower: 59 to 61 °C for the first, 209 to 211 °C for the second.

First: Clc1ccc(-c2nnc(Br)s2)cc1
Second: COc1cccc(-c2nnc(N)s2)c1
The melting point of the first is lower: 135 to 137 °C for the first, 156 to 158 °C for the second.

Compared with `CCOC(=O)c1ccc(C#N)c(S)n1`, `CCOC(=O)c1cnn(-c2ccc(OCC)cc2)c1N` is lower in melting point: 169 to 171 °C for the first, 119 to 121 °C for the second.

First: CC(C)CN1C(=O)CN=C1S
Second: Cc1cc(C(=O)O)c(C)n1C(C)c1ccccc1 (stereo not drawn)
The melting point of the first is lower: < 17 °C for the first, 135 to 137 °C for the second.

First: O=C1Nc2c(Br)cc(F)cc2C1=O
Second: Nc1nc2cc(Br)ccc2[nH]1
The melting point of the first is higher: 215 to 217 °C for the first, 148 to 150 °C for the second.

First: O=C(O)c1cc(/C=C/c2ccc(Br)cc2)nc2ccc(Br)cc12
Second: COc1ccc(COc2cc(Br)ccc2C(F)(F)F)cc1
The melting point of the first is higher: 309 to 311 °C for the first, 32 to 34 °C for the second.

First: Nc1nnc(-c2ccccc2Cl)[nH]1
Second: Sc1nnc(-c2cccs2)[nH]1
The melting point of the first is lower: 218 to 220 °C for the first, 239 to 241 °C for the second.

Compared with `NC(=O)c1ccn(-c2ccc(N)cc2)n1`, `COc1ccc(-n2nc(N)cc2C)cc1` is lower in melting point: 230 to 232 °C for the first, 87 to 89 °C for the second.

First: CC1CN(S(=O)(=O)CCN)CC(C)O1 (stereo not drawn)
Second: CC1CN(C(=O)c2ccc(N)cc2)CC(C)O1 (stereo not drawn)
The melting point of the first is lower: 73 to 75 °C for the first, 174 to 176 °C for the second.

First: O=C1COc2ccncc2N1
Second: O=C(O)c1ccc(Cn2cc(Br)cn2)o1
The melting point of the first is higher: 268 to 270 °C for the first, 128 to 130 °C for the second.

First: O=c1c2ccccc2nc(S)n1-c1nnc[nH]1
Second: Nc1ccccc1C(=O)Nc1cccc(Cl)c1
The melting point of the first is higher: 234 to 236 °C for the first, 131 to 135 °C for the second.

First: CC(C)(C)OC(=O)Nc1cocn1
Second: CC(=O)Nc1ccc(N)c(C(F)(F)F)c1
The melting point of the first is lower: 108 to 110 °C for the first, 118 to 120 °C for the second.

First: NC(=O)c1cnc(N)c(Cl)c1
Second: Cc1nn(Cc2ccc(Cl)cc2Cl)c(Cl)c1C(=O)O
The melting point of the first is lower: 217 to 219 °C for the first, 227 to 229 °C for the second.

Compared with `Cc1ccc(OCc2nc(C(=O)NC3=NCCS3)cs2)cc1`, `Cc1ccc(NCCC#N)cc1` is lower in melting point: 200 to 202 °C for the first, 110 to 112 °C for the second.

First: COCc1cc([N+](=O)[O-])ccc1N
Second: N#Cc1ccc(C(=O)O)[nH]1
The melting point of the first is lower: 83 to 85 °C for the first, 239 to 241 °C for the second.
